Assays:
Format in all cases: cell-based, Suberites domuncula
[1] = system: primmorphs from S. domuncula; assay: Proliferation of cells in primmorphs (parallel batches, BrdU-positive binuclear stages); settings: 0.01 to 1 μg PMA/ml
Description: In order to determine whether the cells do in fact divide after the DNA synthesis, the same batches were analysed which were also used to detect the incorporation of BrdU into cells from the primmorphs of S. domuncula. Those cells which were positive for BrdU and which were still in the binuclear stage after undergoing mitosis were counted.
In line with the above comments, it was also examined in parallel batches whether any change in proliferation occurred after incubation with the agent used here.

[2] = system: primmorphs from S. domuncula; assay: DNA synthesis in primmorphs by BrdU labelling; settings: for percentage share of BrdU-positive cells (change in words): after addition as nutrient
Description: In order to determine the cell proliferation, the integration of BrdU [5-bromo-2′-deoxy-uridine] into the cellular DNA was measured using the “BrdU-iabeling and detection kit”, in accordance with the manufacturer's instructions.
For this purpose, the primmorphs are incubated, usually in 1 ml of the seawater/antibiotic solution, which also contains the BrdU labelling solution [final dilution: usually 1:1,000 (10 μM of BrdU)]. The incubation period is usually 12 hours; the incubation itself is carried out in culture chambers [e.g. the “culture chamber slides (Nunc)”—catalogue number 177453]. Subsequently, the cells are dissociated in CFMSW-E, washed three times in CFMSW-E and fixed/denatured in 70% ethanol [pH 2.0]. After that, the cells are incubated with anti-BrdU mouse monoclonal antibodies and the immune complex is made visible with anti-mouse Ig coupled to alkaline phosphatase and with the dye substrate nitro-blue tetrazolium salt. The cells are analysed under a light-optical microscope.
The primary primmorphs were obtained from individual cells from S. domuncula and used for the experiments after 21 days.
For this reason, the influence of a phorbol ester, phorbol 12-inyristate 13-acetate (PMA), on the percentage of BrdU-positive cells in primmorphs from S. domuncula was determined. The primmorphs were incubated for two days with different concentrations of PMA. After that, the DNA synthesis was determined by means of BrdU labelling as described above. The control, percentage of BrdU-positive cells in primmorphs without the test substance, was set at 100%.
FIG. 5. Influence of the phorbol ester phorbol 12-myristate 13-acetate (PMA) on the percentage share of BrdU-positive cells in primmorphs from S. domuncula. The primmorphs were incubated for two days with different concentrations of PMA. After this, DNA synthesis was determined by means of BrdU labelling. The control, percentage share of BrdU-positive cells among primmorphs without the test substance, was set at 100%. 300 cells were counted per batch.
FIG. 6. Influence of cadmium, concentrations between 0.1 ng/ml and 100 ng/ml were chosen, on the amount of the percentage share of BrdU-positive cells among primmorphs.

[3] = system: primmorphs from S. domuncula; assay: Size (diameter) of primmorphs after addition of nutrients; settings: after addition as nutrient

CCCCCCCCCCCCCC(=O)O[C@@H]1[C@@H](C)[C@@]2(O)[C@@H](C=C(CO)C[C@]3(O)C(=O)C(C)=C[C@@H]23)[C@@H]2C(C)(C)[C@]12OC(C)=O [PMA, phorbol 12-myristate 13-acetate] was tested, and the “proliferation of cells in primmorphs” value [1] was “increase” and the “percentage of BrdU-positive cells in primmorphs” value ([2]; 0.01 to 1 μg PMA/ml, incubated for two days, control without test substance set at 100%) was “distinct percentage increase”.
With [Cd] [cadmium] the “percentage of BrdU-positive cells in primmorphs” value ([2]; cadmium at a concentration of 1 ng/ml and more, single exposure) was “decline”.
With phosphatidylinositol the “size of the primmorphs (change in words)” value [3] was “increase” and the “percentage share of BrdU-positive cells (change in words)” value [2] was “rise”.
For phosphatidyl serine, the “size of the primmorphs (change in words)” value [3] was “increase” and the “percentage share of BrdU-positive cells (change in words)” value [2] was “rise”.

Reference: patent US6664106B1, “Production of primmorphs from disassociated cells of sponges and corals” (priority 1998, dated 2003)
